In patent publication US4460587A, “5-Diazacycloalkyl imidazo[1,2-c][1,3]benzodiazepines” (Ciba-Geigy Corporation, priority 1982, dated 1984) one finds minimal effective dose data, which are given here for one compound.

In assay [1] the test system is learned conditioned avoidance behavior. Description: conditioned avoidance (lever press to avoid electric foot shock) in monkeys. The format is in vivo, squirrel monkeys. As to conditions: Primates, oral, read-out: oral dose that disrupts avoidance behavior, e.g. decreases avoidance responses. The method, then: (§1) Each lever press postpones the shock for 30 seconds. Whenever the animal fails to press the lever once within said period, brief (0.5 sec.) shocks are delivered at 15 second intervals until the animal again presses the lever. Under control conditions the animals press the lever at a moderately steady rate and seldom receive more than five or six shocks during a 25-minute (rats) and up to 4-hour experimental session. Said compounds are administered to the animals 30, 90, 210 minutes prior to the experimental session, and block the learned conditioned avoidance behavior, manifested by a decrease in avoidance responding with a marked increase in shocks taken by the animal. Both the avoidance responses and failures (shocks received) are recorded separately for evaluation.

For assay [2] the test system is unchanged. Kind of assay: conditioned avoidance (lever press to avoid electric foot shock) in rats. The format is in vivo. As to conditions: Rattus norvegicus, oral, read-out: oral dose that disrupts avoidance behavior, e.g. decreases avoidance responses. The method, then: as §1

Take `CN1CCN(C2=Nc3ccccc3Cc3nccn32)CC1` [example 1, 5-(4-methyl-1-piperazinyl)-11H-imidazo[1,2-c][1,3]benzodiazepine]: the minimal effective dose in assay [1] and in assay [2] was at most 50 mg/kg throughout.
